Experimental data published in patent US20090082353A1, “TREATMENT OF EPILEPSY WITH NON-IMIDAZOLE ALKYLAMINES HISTAMINE H3-RECEPTOR LIGANDS” (priority 2005, published 2009).

Experiments:
convulsions = details: rodents; cited from earlier work
[1] = tested on: clonic convulsions induced by pentetrazole; test: clonic convulsions induced by pentetrazole in mice; type: in vivo
Method: The inventors also assessed the effects of one of the non-imidazole compound they described in WO 00/06254, BF2-649 (3-(4-chlorophenyl)propyl 3-piperidinopropyl ether) at 10 mg/kg on clonic convulsions induced by pentetrazole in mice.

[2] = tested on: GAERS (Genetic Absence Epilepsy, Rat from Strasbourg); test: GAERS rat genetic model of absence epilepsy, EEG spike-and-wave discharges; type: in vivo
Method: In a rat genetic model of human epilepsy (particularly of “absence” epilepsy in children and adults), the GAERS (Genetic Absence Epilepsy, Rat from Strasbourg; Vergnes et al, Epilepsy Res. 1989; 4, 8-13), 3-(4-Chlorophenyl)propyl 3-piperidinopropyl ether diminished by up to 77% the number and duration of spike-and-wave discharges, i.e. characteristic EEG changes of the disorder, at a dose of 20 mg/kg. In this strain of Wistar rats with spontaneous generalized non convulsive seizures (absence seizures), seizures are characterized by bilateral and synchronous spike-and-wave discharges (7-9 Hz) on EEG, concomitant with behavioural arrests. These discharges generally last about 20 sec and occur spontaneously every minute when the animals are in a state of quiet wakefulness. Pharmacological reactivity of this model is similar to human absence-epilepsy (e.g., valproate and ethosuccimide are protective). After a recovery period, implanted rats (cortical and hippocampal EEG electrodes) were recorded over a 20 min reference period. Then, 3-(4-Chlorophenyl)propyl 3-piperidinopropyl ether (5 or 20 mg/kg, i.p.) or saline were administered (n=8 per group) and the EEG recording was continued for 60 min. Rats received the alternate treatment one week later. Cumulated duration of absence-seizures was measured by 20 min periods during the two sessions.

[3] = tested on: intrahippocampal kainate-induced temporal lobe seizures; test: intrahippocampal kainate-induced temporal lobe seizures in mice, EEG; type: in vivo
Method: Unilateral injection of kainic acid (1 nmol in 50 nl) into the dorsal hippocampus in mice induces a non-convulsive status that results in spontaneous recurrent focal seizures after 2-3 weeks. Seizures (5 to 20 times per hour in quiet mice) are characterized by a behavioural arrest and/or stereotypes, concomitant with spike and poly-spike discharges recorded in the injected hippocampus. […] This model reproduces the behavioural, EEG, pharmacological and histological characteristics of mesial temporal lobe epilepsy, a form of epilepsy which is often drug-resistant in humans. After a recovery period, implanted mice (for EEG recordings) were injected with kainic acid. They were EEG recorded at least 3 weeks after injection for selection of animals with consistent hippocampal seizure. Then, after a 20 min reference recording period, selected mice received either 3-(4-Chlorophenyl)propyl 3-piperidinopropyl ether (10 or 20 mg/kg i.p.) or saline and the recording was continued for 60 min. Treatments were given in a counter balanced order (after a one week washout period between two sessions).

[4] = tested on: pharmacoresistant epilepsy; test: clinical study in pharmacoresistant epileptic patients; type: in vivo, human; details: 20 to 40 mg/day during 3 months
Method: A clinical study has confirmed the efficiency of the compounds of the invention in treating pharmacoresistant epilepsy. Epileptic patients were enrolled. Those patients suffered from highly frequent seizures (generally more than 10 seizures monthly) despite their treatment consisting in one or more usual anti-epileptic drug of various classes (barbiturics, depakine, lamotrigine, gabapenine, benzodiazepines . . . ). Patients were administered with 3-(4-Chlorophenyl)propyl 3-piperidinopropyl ether at doses comprised between 20 and 40 mg/day during 3 months. Seizures frequency was reduced by 50% in a significant number of patients.

[5] = tested on: high-frequency cortical rhythms (EEG); test: EEG rhythms in healthy human volunteers; type: in vivo
Description: In healthy human volunteers, orally-administered 3-(4-Chlorophenyl)propyl 3-piperidinopropyl ether dose-dependently elicited electroencephalographic changes (i.e. enhanced high-frequency cortical rhythms at the expense of low-frequency rhythms) which are regarded as predictory of facilitated thalamo-cortical activation and inhibition of pathological synchronisation underlying spike-wave discharges in epileptic states (Avanzini et al, Clinical Neurophysiol, 2000, 111, Suppl 2, S19). Groups of 6 male subjects received 40-120 mg 3-(4-Chlorophenyl)propyl 3-piperidinopropyl ether orally.

[6] = tested on: photo paroxymal response (PPR); test: photosensitivity model, intermittent photic stimulation (IPS) in epileptic patients; type: in vivo, human
Description: Photosensitivity, defined as a generalized epileptiform reaction on intermittent photic stimulation (IPS) outlasting the stimulus train is found in about 5% of epileptic patients (Kasteleijn-Nolst trenité DGA. Acta Neurol Scand, 1989; 80:1-149). Unlike most other epilepsies, photosensitive epilepsy is a reflex epilepsy and epileptiform discharges can be evoked at any time by IPS in the laboratory. By determination of both upper and lower sensitivity limits (frequencies per flash) a so-called photosensitivity range can be determined. This range is related to liability of seizures in daily life of the patient. This photosensitivity range is relatively stable within a patient and can be diminished of abolished by antiepileptic medication. […] Furthermore, it is possible to explore the time, onset and duration of the effect, a dose-response relationship and to document serum concentration-time profiles of the study drug. […] The single blind design was chosen in order to reduce comparison bias of IPS response observed after treatment with 3-(4-Chlorophenyl)propyl 3-piperidinopropyl ether administration at Day 2 with placebo evaluation at Day 1. Five single doses will be studied (10 to 90 mg). the margin of safety was determined from the nonclinical and clinical experiments with 3-(4-Chlorophenyl)propyl 3-piperidinopropyl ether.

[7] = tested on: electrically-driven convulsions; details: in vivo; cited from earlier work
[8] = tested on: pentetrazole-induced convulsions; details: mice and rats; cited from earlier work
H3-receptor = details: cited from earlier work
[9] = tested on: GAERS (Genetic Absence Epilepsy, Rat from Strasbourg); details: in vivo; cited from earlier work
seizure susceptibility = details: mice; cited from earlier work
[10] = tested on: amygdaloid-kindled seizures; details: rats; cited from earlier work
[11] = tested on: intrahippocampal kainate-induced temporal lobe seizures; details: mice; cited from earlier work

## N[C@@H](Cc1c[nH]cn1)C(=O)O [L-histidine]
convulsions
  protection from convulsions: tend to protect rodents from convulsions

## Clc1ccc(CCCOCCCN2CCCCC2)cc1 [3-(4-chlorophenyl)propyl 3-piperidinopropyl ether]
[1]; 10 mg/kg with carbamazepine, sodium valproate, phenyloin, diazepam, Phenobarbital
  modification (enhancement) of anticonvulsive properties of established antiepileptic drugs: did not modify
[1]; 10 mg/kg, mice, pentetrazole
  preventing the convulsion (latency or duration): ineffective
[2]; 20 mg/kg i.p., GAERS rats
  diminution of number and duration of spike-and-wave discharges: up to 77%
[2]; 20 mg/kg, 20 min
  spike and wave discharges at 20 min: total suppression
[2]; 20 mg/kg, 1 h
  spike and wave discharges at 1 h: nearly total suppression
[3]; 10 or 20 mg/kg i.p., mice
  frequency of discharges: reduced significantly
  modification of interictal EEG profiles (non specific sedative effect): without any significant modification
[3]; kainate mice
  hippocampal seizures, number and duration: reducing both the number and duration of seizures
[4]
  tolerability: perfectly well tolerated
[4]; add-on, in a significant number of patients
  reduction of seizures frequency: 50%
[5]; 40 mg for 1 week
  EEG response after repeated dosing: enhancement of the response observed on single administration
[5]; 40-120 mg orally, single dose, anterior leads, dose-dependent
  fast EEG activities: significant enhancement of fast activities
[6]; 20 mg, four patients
  suppression of PPR: one patient showed total suppression
[6]; 20 mg, one patient
  duration of total PPR suppression: 6 h
[6]; 40 mg, four patients
  suppression of PPR: one showed partial suppression of PPR and one total suppression of PPR
[6]; 60 mg
  duration of effect: more than 8 hours
  onset of effect post administration: 1 to 2 h
[6]; 60 mg, four patients
  clinical response: clinical response in all four patients
  total suppression of PPR: two patients showed total suppression of PPR
[6]; 60 mg, one patient
  longest duration of effect: up to 36 hours
[6]; add-on to Depakine, Tegretol, Keppra, Lamictal
  tolerability of addition to conventional antiepileptic drugs: well tolerated
[6]; single dose, photosensitive patients
  EEG changes triggered by repetitive photic stimulation: dose-dependently suppressed

## NC(=NCc1ccc(Cl)cc1)SCCCc1cnc[nH]1 [clobenpropit]
[7]
  effect on electrically-driven convulsions: reduce electrically-driven convulsions
[8]
  effect on pentetrazole-induced convulsions: prevent pentetrazole-induced convulsions

## CNCCc1ccccn1 [betahistine]
H3-receptor
  potency of H3-receptor antagonism: only very low potency

## CCC1(C)CC(=O)NC1=O (stereo not shown) [ethosuccimide]
[9]
  pharmacological reactivity of the GAERS model: protective

## S=C(NC1CCCCC1)N1CCC(c2cnc[nH]2)CC1 [thioperamide]
[7]
  effect on electrically-driven convulsions: reduce electrically-driven convulsions
[8]
  effect on pentetrazole-induced convulsions: prevent pentetrazole-induced convulsions
Seizure susceptibility
  effect on seizure susceptibility: failed to affect seizure susceptibility
[10]
  effect on amygdaloid-kindled seizures: ineffective

## O=C1NC(=O)C(c2ccccc2)(c2ccccc2)N1 [phenyloin]
[11]
  effect of antiepileptic drugs on kainate-induced seizures: without significant effects

## Cc1nc(N)nc(N)c1-c1ccc(Cl)c(Cl)c1 [metoprine]
convulsions
  protection from convulsions: tend to protect rodents from convulsions

## c1ccc(C2(N3CCCCC3)CCCCC2)cc1 [phencyclidine]
H3-receptor
  potency of H3-receptor antagonism: only very low potency

## C(=NC12CC3CC(CC(C3)C1)C2)N1CCC(c2cnc[nH]2)CC1.Cl.Cl [AQ0145]
[7]
  effect on electrically-driven convulsions: reduce electrically-driven convulsions
[8]
  effect on pentetrazole-induced convulsions: prevent pentetrazole-induced convulsions

## NCCc1c[nH]cn1 [histamine]
convulsions
  protection from convulsions: tend to protect rodents from convulsions

## CN(C)CCCSC(=N)N [dimaprit]
H3-receptor
  potency of H3-receptor antagonism: only very low potency

## NC(=O)N1c2ccccc2C=Cc2ccccc21 [carbamazepine]
[11]
  effect of antiepileptic drugs on kainate-induced seizures: without significant effects

## CC[C@@H](C(N)=O)N1CCCC1=O [levetiracetam]
[11]
  effect of antiepileptic drugs on kainate-induced seizures: without significant effects
